The values below come from ChEMBL document CHEMBL1128407 (J Med Chem, 1995).

Structures are written as SMILES.

One assay has as its system HCT-116. Put plainly: Compound is evaluated for an in vitro cytotoxicity assay against HCT116 tumor cell lines. The format is functional, cell-based. Conditions: Homo sapiens.
Assay [1] addresses Tubulin alpha chain (Sus scrofa) (UniProt P02550). Put plainly: Compound is evaluated for tubulin polymerization (ratio of compound relative to paclitaxel (EC0.01).

Chain of Tubulin alpha chain (Sus scrofa) (P02550 whole entry, looked up): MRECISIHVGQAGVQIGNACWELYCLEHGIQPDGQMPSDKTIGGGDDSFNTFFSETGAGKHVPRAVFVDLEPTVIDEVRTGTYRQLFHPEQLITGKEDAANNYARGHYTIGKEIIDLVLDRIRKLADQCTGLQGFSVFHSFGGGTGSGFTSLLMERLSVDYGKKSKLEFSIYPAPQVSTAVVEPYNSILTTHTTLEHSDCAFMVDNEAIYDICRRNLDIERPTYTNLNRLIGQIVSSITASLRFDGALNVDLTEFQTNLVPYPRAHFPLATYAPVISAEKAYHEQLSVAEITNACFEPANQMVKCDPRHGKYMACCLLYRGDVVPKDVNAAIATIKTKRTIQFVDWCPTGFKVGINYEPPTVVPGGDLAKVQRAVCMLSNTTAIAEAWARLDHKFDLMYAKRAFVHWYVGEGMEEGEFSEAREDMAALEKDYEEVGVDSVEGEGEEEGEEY

One may read the IC50 as the concentration at which inhibition is half-maximal. Read a low IC50 as inhibition by little substance. As to `CC(=O)O[C@H]1C(=O)[C@@]2(C)[C@H]([C@H](OC(=O)c3ccccc3)[C@]3(O)C[C@H](OC(=O)[C@H](O)[C@@H](NC(=O)c4ccccc4)c4ccccc4)C(C)=C1C3(C)C)[C@]1(OC(=O)N3CC3)CO[C@@H]1C[C@@H]2O`, the half-maximal inhibitory concentration (IC50) with HCT-116 was determined as 15.6 nM.
Consider `CC(=O)O[C@H]1C(=O)[C@]2(C)[C@@H](O)CC3OC[C@@]3(OC(C)=O)[C@H]2[C@H](OC(=O)c2ccccc2)[C@]2(O)C[C@H](OC(=O)[C@H](O)[C@@H](NC(=O)c3ccccc3)c3ccoc3)C(C)=C1C2(C)C` (stereo not given in full), for which the Ratio in assay [1] is 0.85. Moreover, the IC50 in the assay on HCT-116 came out at 0.74 nM.
As to `CC(=O)O[C@H]1C(=O)[C@]2(C)[C@@H](O)CC3OC[C@@]3(OC(=O)N3CC3)[C@H]2[C@H](OC(=O)c2ccccc2)[C@]2(O)C[C@H](OC(=O)[C@H](O)[C@@H](NC(=O)c3ccccc3)c3ccco3)C(C)=C1C2(C)C` (stereo not given in full), the Ratio in assay [1] amounted to 0.7. In the assay on HCT-116, this compound registered an IC50 of 6.9 nM.
With `CC(=O)O[C@H]1C(=O)[C@]2(C)[C@@H](O)CC3OC[C@@]3(OC(=O)C3CC3)[C@H]2[C@H](OC(=O)c2ccccc2)[C@]2(O)C[C@H](OC(=O)[C@H](O)[C@@H](NC(=O)c3ccccc3)c3ccccc3)C(C)=C1C2(C)C` (stereo not given in full), in the assay on HCT-116, the IC50 turned out to be 1 nM. In other words, the single-digit nanomolar range.
As for `CC(=O)O[C@H]1C(=O)[C@]2(C)[C@@H](O)CC3OC[C@@]3(OC(C)=O)[C@H]2[C@H](OC(=O)c2ccccc2)[C@]2(O)C[C@H](OC(=O)[C@H](O)[C@@H](NC(=O)OC(C)(C)C)c3ccccc3)C(C)=C1C2(C)C` (stereo not given in full), in assay [1], the Ratio was 0.55. In addition, in the assay on HCT-116, half-maximal inhibition (IC50) required 0.55 nM.
Take `CC(=O)O[C@H]1C(=O)[C@]2(C)[C@@H](O)CC3OC[C@@]3(OC(=O)N3CC3)[C@H]2[C@H](OC(=O)c2ccccc2)[C@]2(O)C[C@H](OC(=O)[C@H](O)[C@@H](NC(=O)OC(C)(C)C)c3ccco3)C(C)=C1C2(C)C` (stereo not given in full): in assay [1], the Ratio was 0.8. For the same compound, half-maximal inhibition with HCT-116 (IC50) required 2 nM.
